Columns and labels:
[1] = target: T1, human GLP-1R receptor (Homo sapiens, UniProt P43220, L260F); assay: CHOK1 GLP-1R cAMP Assay (HTRF); format: cell-based; details: CHO-K1 cells stably expressing human GLP-1R (Leu260Phe variant), 20 min at rt
T1 construct: expressed in transfected cells; host or cells: CHO-K1 (ATCC CCL-61)
Procedure: A cell line stably expressing the human GLP-1R receptor (NM_002062.5, including the naturally-occurring variant Leu260Phe) in a CHO-K1 (ATCC® CCL-61™) was used for assay.
GLP-1 receptor mediated agonist activity was determined in a cell-based assay measuring cyclic adenosine monophosphate (cAMP) levels in cells using Homogeneous Time-Resolved Fluorescence (HTRF) cAMP detection kit (CisBio catalog #62AM4PEC, cAMP Gs Dynamic range kit). The cAMP detection method is based on a competitive immunoassay, in which cAMP produced by the cells and cAMP labeled with the dye d2 compete for binding to a Europium-Cryptate-labeled anti-cAMP antibody. The specific HTRF signal is inversely proportional to the concentration of cAMP.
Compounds were added to individual well in 384 well-assay plates (Greiner #784076) using an Echo (LabCyte) dispenser from 10 mM stocks. Varying concentration of compounds were added to wells, and DMSO was used to normalize each well to a volume of 100 nL. A dose response curve of GLP-1(7-36)NH2 (Bachem H-6795) was included in each run. 5 μL of cAMP concentration response standards are applied in specified wells in the assay plates. Cryo-preserved cells are thawed and resuspended in assay buffer pre-heated to 37° C. (20 mM 2-[4-(2-hydroxyethyl)piperazin-1-yl]ethanesulfonic acid (HEPES) pH 7.4, 1× Hank's Balanced Salt Solution (HBSS, Life Technologies #14065) supplemented with 0.1% (w/v) bovine serum albumin (Sigma, A-7030)). Cells were centrifuged at 250*g for 5 min at rt, and resuspended in room tempered assay buffer to a final density of 0.16*10^6 cell/mL, to deliver 800 cells/well. 5 μL of assay buffer with 1 mM 3-isobutyl-1-methylxanthin (IBMX; Sigma cat I-7018) was dispensed per well in assay plates using a multidrop combi (Thermo Scientific) subsequently 5 μL of cell suspension was distributed to relevant wells in the assay using a multidrop dispenser. Assay plates were incubated 20 min at rt.
Detection reagents, Europium-Cryptate-labeled anti-cAMP antibody and cAMP labeled with the dye d2, are diluted in lysis buffer, provided by the manufacturer. 5 μL of each detection reagent is supplemented to each assay well using a multidrop dispenser. Assay plates are incubated in the dark for at least one h. The HTRF signal is measured using the HTRF module (excitation: 337 nm, emission A: 665 nm and emission B: 620 nm) in Pherastar FSX (BMG Labtech).
Raw data were converted to pM cAMP using the cAMP standard curve included in each run. Converted data were further analyzed in Genedata Screener (Genedata) and EC50 determinations were made from agonist dose-response curves analyzed with a curve fitting is program using a 4-parameter logistic dose response equation (Equation y=A+((B-A)/1+((C/x)^D))) where A is no stimulation, B is full stimulation, C is the EC50 and D is the Hill slope). The percent effect was determined relative to a saturating concentration of a full GLP-1R agonist (GLP-1(7-36)NH2 has 100% effect in this assay setup).

[2] = target: T2, GLP-1R in a pancreatic insulinoma cell line (EndoC-PH1) (Homo sapiens, UniProt P43220); assay: EndoC cAMP Accumulation Assay (HTRF); format: cell-based; details: EndoC-PH1 human pancreatic beta cell line, endogenous GLP-1R, 30 min at rt
T2 construct: host or cells: EndoC-βH1 human pancreatic beta cell line
Description: EndoC cAMP Accumulation Assay
A HTRF cAMP assay (cAMP Gs dynamic kit; CisoBio Cat #62AM4PEJ) was used to identify agonists of GLP-1R in a pancreatic insulinoma cell line (EndoC-PH1). […] EndoC-PHlcells have detectable GLP-1R messenger ribonucleic acid (mRNA) as detected by quantitative polymerase chain reaction (qPCR). […] The EndoC-PH1 cell line is a valid model of human beta cells and applicable for screenings to identify novel drug target candidates (Mol. Metab., 2018, 8, 144-157). CisBio HTRF cAMP kits are based on a competitive immunoassay using cryptate-labelled anti-cAMP antibody and d2-labeled cAMP. The detection kit is intended for the direct is quantitative determination of cAMP. The specific signal (i.e. energy transfer) is inversely proportional to the concentration of cAMP in the standard or sample. Test compounds (10 mM in DMSO) were diluted into assay buffer (HBSS (Sigma #H8264) supplemented with 25 mM HEPES (Gibco #15630, pH 7.4), 0.1% BSA (Sigma #A3059) and 0.5 mM IBMX (Sigma #I7018) included fresh on the day of the assay) into 96 well U-bottom plates (Greiner #650201). Diluted compounds were transferred to ECHO source polypropelene plates (Labcyte #P-05525) and dose response curves were dispensed acoustically using ECHO 550 into black shallow-well u-bottom 384-well HTRF Assay Plates (Corning 4514). Cryovials of EndoC-H1 (supplied at 1×10e^7 cells/vial) were used directly for screening. The cryovials and were removed from N2(1) and thawed rapidly in a 37° C. water bath. The cells were resuspended in assay buffer and centrifuged at 300 g for 5 min. Cells were resuspended in assay buffer at the appropriate concentration, typically at 12e5 cells per mL (3000 cells per well, dependent on cell batch) and 2.5 μL diluted cells were added to all wells of destination plate by Multidrop combi reagent dispenser (Thermofisher). The plates were incubated at rt for 30 min. The assay was stopped by adding 2.5 μL anti-cAMP cryptate solution to all wells and 2.5 μL cAMP-d2 solution (both diluted 1:20 in lysis buffer) to columns 1-22 by Combi drop. A volume of 2.5 μL cAMP-d2 solution was added to wells E23 to P24 and 2.5 μL lysis buffer added to wells A23 to D24 by multichannel pipette. The plates were incubated at rt for 1 h and read on an Envision plate reader using excitation wavelength of 320 nm and emission of […] and 660 nm.
Raw data from Envision is converted to % DeltaF according to the manufacturer's instructions. Dose response curves are analysed via 4-Parameter Logistical Analysis and assay plate Z’ values obtained. Samples are graphed as percentage (%) activation plots compared to […] with assay window defined by negative control as basal cell is cAMP levels and positive control are defined by maximum GIP (82.5 nM) signal. GLP-1 (7-36 amide, Bachem H-6795) dose response curve was included on all plates.

T1 sequence (P43220 24-463 L260F): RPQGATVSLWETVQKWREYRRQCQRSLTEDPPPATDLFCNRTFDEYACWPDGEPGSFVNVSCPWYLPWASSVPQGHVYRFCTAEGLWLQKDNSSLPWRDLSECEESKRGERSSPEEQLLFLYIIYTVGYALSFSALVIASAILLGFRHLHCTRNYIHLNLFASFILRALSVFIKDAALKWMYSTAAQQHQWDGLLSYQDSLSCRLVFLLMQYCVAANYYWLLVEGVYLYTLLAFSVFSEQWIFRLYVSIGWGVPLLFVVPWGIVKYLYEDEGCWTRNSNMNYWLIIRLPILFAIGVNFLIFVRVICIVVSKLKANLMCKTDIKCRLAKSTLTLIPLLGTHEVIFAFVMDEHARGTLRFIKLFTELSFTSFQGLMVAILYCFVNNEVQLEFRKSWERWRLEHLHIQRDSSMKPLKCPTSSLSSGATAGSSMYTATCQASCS
T2 sequence (P43220 24-463): as the sequence (P43220 24-463 L260F) above, with F237L counted along it

| EC50 [1] [nM] | EC50 [2] [nM] | Compound |
| --- | --- | --- |
| 220 | 4400 | C[C@]1(c2ccc(Cl)cn2)Oc2cccc(N3CCN(Cc4nc5c(Cl)cc(C(=O)O)cc5n4C[C@@H]4CCO4)[C@H]4CC[C@@H]43)c2O1 (single isomer, unassigned) [Example 3a, 4-Chloro-2-(((1R*,6R*)-5-((R*)-2-(5-chloropyridin-2-yl)-2-methylbenzo[d][1,3]dioxol-4-yl)-2,5-diazabicyclo[4.2.0]octan-2-yl)methyl)-1-(((S)-oxetan-2-yl)methyl)-1H-benzo[d]imidazole-6-carboxylic acid] |
| 10 | 7 | C[C@]1(c2ccc(Cl)cn2)Oc2cccc(N3CCN(Cc4nc5c(Cl)cc(C(=O)O)cc5n4CC4(CC#N)CC4)[C@H]4CC[C@@H]43)c2O1 (single isomer, unassigned) [Example 26d] |
| 0.81 | 2.2 | C[C@]1(c2ccc(Cl)cn2)Oc2cccc(N3CCN(Cc4nc5c(Cl)cc(C(=O)O)cc5n4C[C@@H]4CCO4)[C@H]4CC[C@H]43)c2O1 (single isomer, unassigned) [Example 20c, 4-Chloro-2-(((1R*,6S*)-5-((R*)-2-(5-chloropyridin-2-yl)-2-methylbenzo[d][1,3]dioxol-4-yl)-2,5-diazabicyclo[4.2.0]octan-2-yl)methyl)-1-(((S)-oxetan-2-yl)methyl)-1H-benzo[d]imidazole-6-carboxylic acid] |
| 2.5 | 2.8 | C[C@]1(c2ccc(Cl)cn2)Oc2cccc(N3CCN(Cc4nc5c(Cl)cc(C(=O)O)cc5n4C[C@@H]4CCO4)[C@H]4CC[C@H]43)c2O1 (single isomer, unassigned) [Example 20d, 4-Chloro-2-(((1R*,6S*)-5-((R*)-2-(5-chloropyridin-2-yl)-2-methylbenzo[d][1,3]dioxol-4-yl)-2,5-diazabicyclo[4.2.0]octan-2-yl)methyl)-1-(((S)-oxetan-2-yl)methyl)-1H-benzo[d]imidazole-6-carboxylic acid] |
| 29 | 49 | C[C@]1(c2ccc(Cl)cn2)Oc2cccc(N3CCN(Cc4nc5ccc(C(=O)O)cc5n4C[C@@H]4CCO4)[C@H]4CC[C@@H]43)c2O1 (single isomer, unassigned) [Example 22a, 2-(((1R*,6R*)-5-((R*)-2-(5-Chloropyridin-2-yl)-2-methylbenzo[d][1,3]dioxol-4-yl)-2,5-diazabicyclo[4.2.0]octan-2-yl)methyl)-1-(((S)-oxetan-2-yl)methyl)-1H-benzo[d]imidazole-6-carboxylic acid] |
| 64 | 160 | C[C@]1(c2ccc(Cl)cn2)Oc2cccc(N3CCN(Cc4nc5c(Cl)cc(C(=O)O)cc5n4CC4(CC#N)CC4)[C@H]4CC[C@@H]43)c2O1 (single isomer, unassigned) [Example 26c] |
| 1.5 | 2 | C[C@]1(c2ccc(Cl)cn2)Oc2cccc(N3CCN(Cc4nc5c(Cl)cc(C(=O)O)cc5n4CC4(CC#N)CC4)[C@H]4CC[C@@H]43)c2O1 (single isomer, unassigned) [Example 26b] |
| 28 | 74 | C[C@]1(c2ccc(Cl)cc2F)Oc2cccc(N3CCN(Cc4nc5c(F)cc(C(=O)O)cc5n4C[C@@H]4CCO4)[C@H]4CC[C@H]43)c2O1 (single isomer, unassigned) [Example 9c, 2-(((1R*,6S*)-5-((R*)-2-(4-Chloro-2-fluorophenyl)-2-methylbenzo[d][1,3]dioxol-4-yl)-2,5-diazabicyclo[4.2.0]octan-2-yl)methyl)-4-fluoro-1-(((S)-oxetan-2-yl)methyl)-1H-benzo[d]imidazole-6-carboxylic acid] |
| 93 | 370 | COc1cc(C(=O)O)cc2c1nc(CN1CCN(c3cccc4c3O[C@@](C)(c3ccc(Cl)cn3)O4)[C@@H]3CC[C@@H]31)n2C[C@@H]1CCCO1 (single isomer, unassigned) [Example 8d] |
| 6.2 | 6.6 | COc1cc(C(=O)O)cc2c1nc(CN1CCN(c3cccc4c3O[C@@](C)(c3ccc(Cl)cn3)O4)[C@@H]3CC[C@@H]31)n2C[C@@H]1CCCO1 (single isomer, unassigned) [Example 8a] |

The next lines start with the compound.

| Compound | EC50 [1] [nM] | EC50 [2] [nM] |
| --- | --- | --- |
| COc1cc(C(=O)O)cc2c1nc(CN1CCN(c3cccc4c3O[C@@](C)(c3ccc(Cl)cn3)O4)[C@H]3CC[C@@H]31)n2CC1(C#N)CC1 (single isomer, unassigned) [Example 25d] | 36 | 74 |
| COc1cc(C(=O)O)cc2c1nc(CN1CCN(c3cccc4c3O[C@@](C)(c3ccc(Cl)cn3)O4)[C@H]3CC[C@@H]31)n2CC1(C#N)CC1 (single isomer, unassigned) [Example 25b] | 6.2 | 7.5 |
| C[C@]1(c2ccc(Cl)cc2F)Oc2cccc(N3CCN(Cc4nc5c(F)cc(C(=O)O)cc5n4C[C@@H]4CCO4)[C@H]4CC[C@H]43)c2O1 (single isomer, unassigned) [Example 9a] | 57 | 340 |
| C[C@]1(c2ccc(Cl)cn2)Oc2cccc(N3CCN(Cc4nc5c(F)cc(C(=O)O)cc5n4CC4(CC#N)CC4)[C@H]4CC[C@@H]43)c2O1 (single isomer, unassigned) [Example 23b] | 27 | 85 |
| C[C@]1(c2ccc(Cl)cn2)Oc2cccc(N3CCN(Cc4nc5c(F)cc(C(=O)O)cc5n4CC4(CC#N)CC4)[C@H]4CC[C@@H]43)c2O1 (single isomer, unassigned) [Example 23c] | 140 | 360 |
| CCn1ccnc1Cn1c(CN2CCN(c3cccc4c3O[C@@](C)(c3ccc(Cl)cn3)O4)[C@H]3CC[C@@H]32)nc2c(Cl)cc(C(=O)O)cc21 (single isomer, unassigned) [Example 10b] | 19 | 76 |
| C[C@]1(c2ccc(Cl)cn2)Oc2cccc(N3CCN(Cc4nc5c(F)cc(C(=O)O)cc5n4CC4(CC#N)CC4)[C@H]4CC[C@@H]43)c2O1 (single isomer, unassigned) [Example 23d] | 11 | 7.6 |

— patent publication US20240417393A1, “CERTAIN 2,5-DIAZABICYCLO[4.2.0]OCTANES AS GLP-1 RECEPTOR MODULATORS” (ASTRAZENECA AB, priority 2021, published 2024)
